Measured values taken from ChEMBL document CHEMBL1152057, “A note of caution in the use of receptor binding assays to screen marine organisms: the action of halistanol trisulphate on adenosine receptors” (Bioorg Med Chem Lett, 1992).

Legend:
Adenosine receptor A1 [1] = target: T1, Adenosine receptor A1 (Rattus norvegicus, UniProt P25099); assay: Agonistic activity against adenosine A1 receptor; type: functional
T1 sequence (P25099 whole entry): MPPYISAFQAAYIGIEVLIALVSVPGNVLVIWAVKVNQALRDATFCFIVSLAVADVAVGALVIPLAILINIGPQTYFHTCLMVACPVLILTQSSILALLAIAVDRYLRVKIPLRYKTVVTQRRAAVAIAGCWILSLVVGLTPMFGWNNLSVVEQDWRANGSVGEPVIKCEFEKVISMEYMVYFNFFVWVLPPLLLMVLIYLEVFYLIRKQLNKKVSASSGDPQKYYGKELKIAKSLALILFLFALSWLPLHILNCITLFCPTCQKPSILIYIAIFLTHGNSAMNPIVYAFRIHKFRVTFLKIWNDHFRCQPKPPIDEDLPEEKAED

[2] = target: T2, Adenosine receptor A1 (Rattus norvegicus) (UniProt P25099); assay: Bmax value for adenosine A1 receptor binding at 14.5 uM
T2 sequence (whole entry): T1 sequence (P25099 whole entry)

[3] = target: T2, Adenosine receptor A1 (Rattus norvegicus); assay: Bmax value for adenosine A1 receptor binding at 145 uM
Adenosine receptor A1 [4] = target: T1, Adenosine receptor A1; assay: Kd value for adenosine A1 receptor binding at 14.5 uM
Adenosine receptor A1 [5] = target: T1, Adenosine receptor A1; assay: Kd value for adenosine A1 receptor binding at 145 uM

| IC50 (Adenosine receptor A1 [1]) | Bmax [2] | Bmax [3] | Kd (Adenosine receptor A1 [4]) | Kd (Adenosine receptor A1 [5]) | SMILES |
| --- | --- | --- | --- | --- | --- |
| 120000 nM | 346 fmol/mg | 319 fmol/mg | 1.39 nM | 10.6 nM | CC(CCC(C)C(C)(C)C)C1CC[C@H]2[C@@H]3C[C@H](OS(=O)(=O)O)C4C[C@H](OS(=O)(=O)O)[C@@H](OS(=O)(=O)O)CC4(C)[C@H]3CCC12C (stereo partly specified) |
| 17 nM |  |  |  |  | COc1cc(-c2oc3c(OC)cc(CCCO)cc3c2C=O)ccc1O |
